Columns and labels:
Type in all cases: in vivo
[1] = system: beet armyworm, Laphygma exigua Hubner (甜菜夜蛾); experiment: bioactivity evaluation against beet armyworm, leaf dip; settings: Spodoptera exigua, in Brassica oleracea, foliar, 72 h, read-out: mortality grade
[2] = system: oriental armyworm, Mythimna separata Walker (东方粘虫); experiment: bioactivity evaluation against oriental armyworm, leaf dip; settings: in Zea mays, foliar, 72 h, read-out: mortality grade
[3] = system: diamondback moth, Plutella xylostella (L.) (小菜蛾); experiment: bioactivity evaluation against diamondback moth, leaf dip; settings: in Brassica oleracea, foliar, 72 h, read-out: mortality grade

Measured: mortality at 500 ppm

Cc1cc(Cl)cc(C(=O)NC2CC2)c1NC(=O)c1cc(OCC(F)(F)F)nn1-c1ncccc1Cl [compound 18]
90 to 100%: [1] | [2] | [3]
